Measurements published in patent publication US10519152B2, “Compounds and their use in treating cancer” (AstraZeneca AB, priority 2017, dated 2019).

Target: T1, recombinant human Estrogen Receptor alpha ligand binding domain, residues 307-554 (ER alpha-LBD (GST)) (Homo sapiens, UniProt P03372)
T1 construct: made in house
T1 sequence (P03372 307-554): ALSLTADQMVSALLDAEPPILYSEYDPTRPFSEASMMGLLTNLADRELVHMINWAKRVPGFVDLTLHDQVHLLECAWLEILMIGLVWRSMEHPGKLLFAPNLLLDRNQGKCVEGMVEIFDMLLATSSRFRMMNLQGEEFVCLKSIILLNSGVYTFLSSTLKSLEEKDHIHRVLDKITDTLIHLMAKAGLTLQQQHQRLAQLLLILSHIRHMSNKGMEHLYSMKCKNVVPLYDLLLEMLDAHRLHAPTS
Assay: ERα binding assay (LanthaScreen TR-FRET competition)
Settings: TR-FRET competition with Fluormone ES2 tracer, 4 hours at room temperature; single experiment or average of two or more

In order of falling IC50:
1. Cc1ncsc1-c1ccc(CNC(=O)[C@@H]2C[C@@H](O)CN2C(=O)[C@@H](NC(=O)C(F)(F)OCCCCCCOc2cc(F)c([C@@H]3c4[nH]c5ccccc5c4C[C@@H](C)N3CC(C)(C)F)c(F)c2)C(C)(C)C)cc1 [Example 116, (2S,4R)-1-((S)-2-(2-((6-(3,5-Difluoro-4-((1R,3R)-2-(2-fluoro-2-methylpropyl)-3-methyl-2,3,4,9-tetrahydro-1H-pyrido[3,4-b]indol-1-yl)phenoxy)hexyl)oxy)-2,2-difluoroacetamido)-3,3-dimethylbutanoyl)-4-hydroxy-N-(4-(4-methylthiazol-5-yl)benzyl)pyrrolidine-2-carboxamide]  1 nM
2. Cc1ncsc1-c1ccc([C@H](C)NC(=O)[C@@H]2C[C@@H](O)CN2C(=O)[C@@H](NC(=O)CCOCCCCCCCOc2cc(F)c([C@@H]3c4[nH]c5ccccc5c4C[C@@H](C)N3CC(C)(C)F)c(F)c2)C(C)(C)C)cc1 [Example 114, (2S,4R)-1-((S)-2-(3-((7-(3,5-difluoro-4-((1R,3R)-2-(2-fluoro-2-methylpropyl)-3-methyl-2,3,4,9-tetrahydro-1H-pyrido[3,4-b]indol-1-yl)phenoxy)heptyl)oxy)propanamido)-3,3-dimethylbutanoyl)-4-hydroxy-N—((S)-1-(4-(4-methylthiazol-5-yl)phenyl)ethyl)pyrrolidine-2-carboxamide]  0.9 nM
3. Cc1ncsc1-c1ccc([C@H](C)NC(=O)[C@@H]2C[C@@H](O)CN2C(=O)[C@@H](NC(=O)C(F)(F)OCCCOCCCOc2cc(F)c([C@@H]3c4[nH]c5ccccc5c4C[C@@H](C)N3CC(C)(C)F)c(F)c2)C(C)(C)C)cc1 [Example 120, (2S,4R)-1-((S)-2-(2-(3-(3-(3,5-Difluoro-4-((1R,3R)-2-(2-fluoro-2-methylpropyl)-3-methyl-2,3,4,9-tetrahydro-1H-pyrido[3,4-b]indol-1-yl)phenoxy)propoxy)propoxy)-2,2-difluoroacetamido)-3,3-dimethylbutanoyl)-4-hydroxy-N—((S)-1-(4-(4-methylthiazol-5-yl)phenyl)ethyl)pyrrolidine-2-carboxamide]  0.9 nM
4. Cc1ncsc1-c1ccc(CNC(=O)[C@@H]2C[C@@H](O)CN2C(=O)[C@@H](NC(=O)C(F)(F)OCCCOCCCOc2cc(F)c([C@@H]3c4[nH]c5ccccc5c4C[C@@H](C)N3CC(C)(C)F)c(F)c2)C(C)(C)C)cc1 [Example 119, (2S,4R)-1-((S)-2-(2-(3-(3-(3,5-Difluoro-4-((1R,3R)-2-(2-fluoro-2-methylpropyl)-3-methyl-2,3,4,9-tetrahydro-1H-pyrido[3,4-b]indol-1-yl)phenoxy)propoxy)propoxy)-2,2-difluoroacetamido)-3,3-dimethylbutanoyl)-4-hydroxy-N-(4-(4-methylthiazol-5-yl)benzyl)pyrrolidine-2-carboxamide]  0.8 nM
5. Cc1ncsc1-c1ccc(CNC(=O)[C@@H]2C[C@@H](O)CN2C(=O)[C@@H](NC(=O)CCCCCCOCCCOc2cc(F)c([C@@H]3c4[nH]c5ccccc5c4C[C@@H](C)N3CC(C)(C)F)c(F)c2)C(C)(C)C)cc1 [Example 110, (2S,4R)-1-((S)-2-(7-(3-(3,5-difluoro-4-((1R,3R)-2-(2-fluoro-2-methylpropyl)-3-methyl-2,3,4,9-tetrahydro-1H-pyrido[3,4-b]indol-1-yl)phenoxy)propoxy)heptanamido)-3,3-dimethylbutanoyl)-4-hydroxy-N-(4-(4-methylthiazol-5-yl)benzyl)pyrrolidine-2-carboxamide]  0.7 nM
6. Cc1ncsc1-c1ccc(CNC(=O)[C@@H]2C[C@@H](O)CN2C(=O)[C@@H](NC(=O)CCOCCCCCCCOc2cc(F)c([C@@H]3c4[nH]c5ccccc5c4C[C@@H](C)N3CC(C)(C)F)c(F)c2)C(C)(C)C)cc1 [Example 115, (2S,4R)-1-((S)-2-(3-((7-(3,5-difluoro-4-((1R,3R)-2-(2-fluoro-2-methylpropyl)-3-methyl-2,3,4,9-tetrahydro-1H-pyrido[3,4-b]indol-1-yl)phenoxy)heptyl)oxy)propanamido)-3,3-dimethylbutanoyl)-4-hydroxy-N-(4-(4-methylthiazol-5-yl)benzyl)pyrrolidine-2-carboxamide]  0.7 nM
7. Cc1ncsc1-c1ccc(CNC(=O)[C@@H]2C[C@@H](O)CN2C(=O)[C@@H](NC(=O)C2(OCCCCCCOc3cc(F)c([C@@H]4c5[nH]c6ccccc6c5C[C@@H](C)N4CC(C)(C)F)c(F)c3)CC2)C(C)(C)C)cc1 [Example 118, (2S,4R)-1-((S)-2-(1-((6-(3,5-difluoro-4-((1R,3R)-2-(2-fluoro-2-methylpropyl)-3-methyl-2,3,4,9-tetrahydro-1H-pyrido[3,4-b]indol-1-yl)phenoxy)hexyl)oxy)cyclopropane-1-carboxamido)-3,3-dimethylbutanoyl)-4-hydroxy-N-(4-(4-methylthiazol-5-yl)benzyl)pyrrolidine-2-carboxamide]  0.7 nM
8. Cc1ncsc1-c1ccc(CNC(=O)[C@@H]2C[C@@H](O)CN2C(=O)[C@@H](NC(=O)CCCCCOCCCCOc2cc(F)c([C@@H]3c4[nH]c5ccccc5c4C[C@@H](C)N3CC(C)(C)F)c(F)c2)C(C)(C)C)cc1 [Example 109, (2S,4R)-1-((S)-2-(6-(4-(3,5-difluoro-4-((1R,3R)-2-(2-fluoro-2-methylpropyl)-3-methyl-2,3,49-tetrahydro-1H-pyrido[3,4-b]indol-1-yl)phenoxy)butoxy)hexanamido)-3,3-dimethylbutanoyl)-4-hydroxy-N-(4-(4-methylthiazol-5-yl)benzyl)pyrrolidine-2-carboxamide]  0.6 nM
9. Cc1ncsc1-c1ccc(CNC(=O)[C@@H]2C[C@@H](O)CN2C(=O)[C@@H](NC(=O)CCCCCCCOCCOc2cc(F)c([C@@H]3c4[nH]c5ccccc5c4C[C@@H](C)N3CC(C)(C)F)c(F)c2)C(C)(C)C)cc1 [Example 111, (2S,4R)-1-((S)-2-(8-(2-(3,5-Difluoro-4-((1R,3R)-2-(2-fluoro-2-methylpropyl)-3-methyl-2,3,4,9-tetrahydro-1H-pyrido[3,4-b]indol-1-yl)phenoxy)ethoxy)octanamido)-3,3-dimethylbutanoyl)-4-hydroxy-N-(4-(4-methylthiazol-5-yl)benzyl)pyrrolidine-2-carboxamide]  0.6 nM
10. Cc1ncsc1-c1ccc(CNC(=O)[C@@H]2C[C@@H](O)CN2C(=O)[C@@H](NC(=O)CCCCOCCCCCOc2cc(F)c([C@@H]3c4[nH]c5ccccc5c4C[C@@H](C)N3CC(C)(C)F)c(F)c2)C(C)(C)C)cc1 [Example 113, (2S,4R)-1-((S)-2-(5-((5-(3,5-Difluoro-4-((1R,3R)-2-(2-fluoro-2-methylpropyl)-3-methyl-2,3,4,9-tetrahydro-1H-pyrido[3,4-b]indol-1-yl)phenoxy)pentyl)oxy)pentanamido)-3,3-dimethylbutanoyl)-4-hydroxy-N-(4-(4-methylthiazol-5-yl)benzyl)pyrrolidine-2-carboxamide]  0.6 nM
11. Cc1ncsc1-c1ccc(CNC(=O)[C@@H]2C[C@@H](O)CN2C(=O)[C@@H](NC(=O)CCCOCCCCCCOc2cc(F)c([C@@H]3c4[nH]c5ccccc5c4C[C@@H](C)N3CC(C)(C)F)c(F)c2)C(C)(C)C)cc1 [Example 112, (2S,4R)-1-((S)-2-(4-((6-(3,5-difluoro-4-((1R,3R)-2-(2-fluoro-2-methylpropyl)-3-methyl-2,3,4,9-tetrahydro-1H-pyrido[3,4-b]indol-1-yl)phenoxy)hexyl)oxy)butanamido)-3,3-dimethylbutanoyl)-4-hydroxy-N-(4-(4-methylthiazol-5-yl)benzyl)pyrrolidine-2-carboxamide]  0.5 nM
